Here are results for one compound from patent US9220705B2, “Method of treating colorectal cancer” (priority 2013, dated 2015).

For data set [1], the system named is LoVo-OXP colorectal adenocarcinoma xenografts. The experiment in a line: In vivo anticancer activity, oxaliplatin-resistant colorectal xenograft. The arrangement: species or system BALB/c nu/nu mice. The settings on record: LoVo-OXP xenograft mice, day 14 to day 30; FIG. 5 panel B. On the procedure: (§1) LoVo and LoVo-OXP tumor xenografts were established in 6-week-old BALB/c nu/nu mice by injecting 1×10^7 tumor cells subcutaneously (100 μL in serum free medium) on the left dorsal flank. After 24 h from tumor implantation, mice were randomly divided into five groups (6 animals per group, 8 controls). Chemotherapy was delayed until the tumor became palpable (day 14). From day 14, 1 was dosed daily at 3 mg/kg ip whereas OXP was dosed daily at 2 mg/kg ip. Measurements of body weights and tumor volumes were recorded every 2 days until the experimental endpoint. The long axis (L) and the short axis (S) were measured with caliper, and the tumor volume (V) was calculated using the following equation: V=S×S×L/2. At day 30, animals were sacrificed, and the inhibition of tumor growth was determined by comparing the volume of the control group and the treatment group expressed as % referred to the control animals.
(§2) All the values are the means±S.D. of not less than three measurements. Multiple comparisons were made by Tukey-Kramer test (**p<0.01; *p<0.05).

Another data set in a line: Aqueous solubility. The settings on record: compared to compound 2. In kind it is physicochemical.
Data set [2] deals with 2008/C13*, LoVo/LoVo-OXP, LoVo MDR. The experiment in a line: MTT cytotoxicity, comparison over the Table 2 cell lines. Format: cell-based, human. The settings on record: 2008 ovarian and LoVo colon sensitive cells. As to the method: (§3) After 24 h, the medium was removed and replaced with a fresh one containing the compound to be studied, at the appropriate concentration, dissolved in 0.9% sodium chloride solution just before use. Triplicate cultures were established for each treatment. After 72 h, each well was treated with […] of a 5 mg mL^−1 MTT saline solution and, after 5 h of incubation, 100 μL of a sodium dodecylsulfate (SDS) solution in 0.01 M HCl were added. After an overnight incubation, the inhibition of cell growth induced by the tested complexes was determined by measuring the absorbance of each well at 570 nm using a BioRad 680 microplate reader. Mean absorbance for each drug dose was expressed as percentage of the control and plotted vs. drug concentration. Dose-response curves were fitted and IC50 values were calculated with four parameter logistic model (4PL).
A LoVo cell line retaining a multidrug resistance phenotype was also considered (LoVo MDR). Cross-resistance profiles were evaluated by means of the resistance factor (RF), which is defined as the ratio between the IC50 value for the resistant cells and that arising from the sensitive cells (Table 2).

The subject of data set [3] is human ovarian A2780 cancer cell line. Conditions: Kasparkova 2010; cited from earlier work.
The subject of data set [4] is panel of human tumor cell lines (A431, MCF-7, A375, HCT-15, SW480, CaCo-2, DLD-1). The experiment in a line: MTT cytotoxicity, comparison over the Table 1 panel. Format: cell-based. Conditions: average over seven cell lines of Table 1. On the procedure: as §3
The cytotoxicity was evaluated by means of the MTT test for 72 h treatment with increasing concentrations of the tested compounds.

The test system of data set [5] is LoVo colorectal adenocarcinoma xenografts. The experiment in a line: In vivo anticancer activity, oxaliplatin-sensitive colorectal xenograft. The arrangement: species or system BALB/c nu/nu mice. Conditions: LoVo xenograft mice, day 14 to day 30; FIG. 5 panel A. On the procedure: as §1, §2
In data set [6] the test system is Lewis lung carcinoma (LLC). Description: In vivo anticancer activity toward Lewis lung carcinoma. Details: species or system C57BL mice. The settings on record: LLC-bearing mice. As to the method:
All studies involving animal testing were carried out in accordance with the ethical guidelines for animal research adopted by the University of Padua, acknowledging the Italian regulation and the European Directive 86/609/EEC as to animal welfare and protection and the related codes of practice. The mice were purchased from Charles River, Italy, and housed in steel cages under controlled environmental conditions (constant temperature, humidity, and 12 h dark/light cycle) and alimented with commercial standard feed and tap water ad libitum. Animals were observed daily, and body weight and food intake recorded. The Lewis lung carcinoma (LLC) cell line was purchased from ECACC, UK. The LLC cell line was maintained in D-MEM (Euroclone) supplemented with 10% heat-inactivated FBS (Euroclone), 10 mM L-glutamine, 100 U mL^−1 penicillin, and 100 μg mL^−1 streptomycin in a 5% CO2 air incubator at 37° C.
The Lewis lung carcinoma (LLC) was implanted i.m. as a 2×10^6 cell inoculum into the right hind leg of 8-week old male and female C57BL mice (24±3 g body weight). […] At day 15, animals were sacrificed, the legs were amputated at the proximal end of the femur, and the inhibition of tumor growth was determined according to the difference in weight of the tumor-bearing leg and the healthy leg of the animals expressed as % referred to the control animals. Body weight was measured every two days and was taken as a parameter for systemic toxicity.
All the values are the means±S.D. of not less than three measurements. Multiple comparisons were made by Tukey-Kramer test (**p<0.01; *p or °p<0.05).
The in vivo antitumor activity of compound 1 was evaluated in a model of solid tumor, the syngeneic murine Lewis lung carcinoma (LLC). […] For the assessment of the adverse side effects, changes in body weights of tumor-bearing mice were monitored daily (FIG. 3).

Data set [7] is classed as physicochemical. An excerpt: Lipophilicity is usually expressed in terms of n-octanol/water partition coefficient, log Po/w, and correlates with cellular uptake by passive diffusion (Liu, X., et al., Pharm. Res. 2011, 28, 962-977).
Since RP-HPLC retention is due to partitioning between mobile (polar) and stationary (apolar) phases, there is a good correlation between capacity factor k′ (k′=(tR−t0)/t0, where t0 is the retention time for an unretained compound and tR is the retention time of the analyte) and partition coefficient (log Po/w=a+b log k′). Thus the HPLC procedure represents a good alternative to the time- and material-consuming shake-flask method. […] This implies that there are specific import (CTR1, OCT, etc.) or export (ATP7B) mechanisms which operate selectively on the different types of complexes.

Consider `[Cl][Pt]1([Cl])[NH]C2CCC(CC2)[NH]1` [Compound 1, [SP-4-2-(cis)]-dichloro(1,4-cyclohexanediamine-N,N′)platinum], for which the body weight loss result in data set [1] and in data set [5] was “roughly equivalent to that obtained by using the parent drug oxaliplatin” in each case. Further, the aqueous solubility entry in the data set “Aqueous solubility” is listed as “enhanced aqueous solubility compared to compound 2”. The “cytotoxic activity towards sensitive lines compared with reference drugs” value in data set [2] was “as good as oxaliplatin and better than cisplatin”. Further, the “cytotoxicity, fold greater than cisplatin” value in data set [3] is 3.4-5.4. Moreover, the “average cytotoxic activity compared with reference drugs” value in data set [4] is “slightly more effective than oxaliplatin”. The “body weight loss compared with cisplatin” value in data set [6] (1.5 mg kg^−1 each, FIG. 3) is recorded as “about half that caused by cisplatin”. In addition, the “tolerability compared with cisplatin” value in data set [6] (daily i.p.) is on record as “better tolerated than cisplatin”. Also, the “adverse side effects (body weight loss) compared with cisplatin” value in data set [6] (compound 1 at 3 mg kg^−1, FIG. 3) is given as “smaller adverse side effects than cisplatin”. The “log Po/w” value in data set [7] is recorded as −1.57±0.10.
